Experimental findings from the supplement of paper PMC10307832 are described below.

Common to all, as to assay: relative viability (nuclei count vs DMSO), 5 days (fraction); higher = more cells survive
Compound in one assay: COc1nc(N)nc2c1ncn2[C@@H]1O[C@H](CO)[C@@H](O)[C@@H]1O [Nelarabine]
The method, boiled down: (§1)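 Vehicle-anchored 1536-well plates of lung cancer cell lines, held overnight at 37 °C, were pinned with five library-drug doses (not always all listed) spaced by √10. No medium change followed over the next 5 days, after which the cells were fixed, permeabilised and Hoechst-stained together and imaged at 4×. Nuclei were counted with MetaXpress, and viability is treated-well nuclei over vehicle-well nuclei, taken as a median across plates. Plates passed with control CV below 25% and at least one doubling.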

Compound in a further assay: C=CCn1c(=O)c2cnc(Nc3ccc(N4CCN(C)CC4)cc3)nc2n1-c1cccc(C(C)(C)O)n1 [Adavosertib]
A digest of the protocol: as §1

Compound in the assay “Nelarabine + Pemetrexed”: COc1nc(N)nc2c1ncn2[C@@H]1O[C@H](CO)[C@@H](O)[C@@H]1O [Nelarabine] + Nc1nc2[nH]cc(CCc3ccc(C(=O)N[C@@H](CCC(=O)O)C(=O)O)cc3)c2c(=O)[nH]1 [Pemetrexed] (partner 0.2 µM)
The method, boiled down: (§2)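 Five library-drug doses in √10 steps were combined with a fixed anchor-drug dose, or a single drug was given alone, by pin tool to lung cancer cell lines in 1536-well plates the day after seeding. Nuclei were stained and counted after 5 days. Relative viability is the nuclei count in treated wells over that in vehicle wells, taken as the median of duplicate plates.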

Compound in the assay “Adavosertib + Alpelisib”: C=CCn1c(=O)c2cnc(Nc3ccc(N4CCN(C)CC4)cc3)nc2n1-c1cccc(C(C)(C)O)n1 [Adavosertib] + Cc1nc(NC(=O)N2CCC[C@H]2C(N)=O)sc1-c1ccnc(C(C)(C)C(F)(F)F)c1 [Alpelisib] (partner 2 µM)
A digest of the protocol: as §2

NCI-H3122: the relative viability amounted to 1.1 in the assay with Nelarabine (0.01 µM); 0.929 with Nelarabine (0.03162 µM); 1.06 in the assay with Nelarabine (0.3162 µM); 1.05 with Nelarabine (1 µM); 0.987 with Adavosertib (0.01 µM); 0.95 with Adavosertib (0.03162 µM). The relative viability with Adavosertib (0.1 µM) came out at 1.04; in the assay with Adavosertib (0.3162 µM), 1.03; with Nelarabine + Pemetrexed (first compound 0.01 µM) it was 0.194; with Nelarabine + Pemetrexed (first compound 0.03162 µM) it was 0.18; with Nelarabine + Pemetrexed (first compound 0.3162 µM), 0.204; with Nelarabine + Pemetrexed (first compound 1 µM), 0.195. The relative viability was 0.763 in the assay with Adavosertib + Alpelisib (first compound 0.01 µM), 0.656 with Adavosertib + Alpelisib (first compound 0.03162 µM), 0.83 with Adavosertib + Alpelisib (first compound 0.1 µM) and 0.84 with Adavosertib + Alpelisib (first compound 0.3162 µM).
On to PC-3 [JPC-3], for which the relative viability with Nelarabine (0.01 µM) was 1.08; with Nelarabine (0.03162 µM) it was 1.09; in the assay with Nelarabine (0.1 µM), 1.14; with Nelarabine (0.3162 µM), 1.06; in the assay with Nelarabine (1 µM), 1.06; in the assay with Adavosertib (0.01 µM), 1.04. In addition, the relative viability in the assay with Adavosertib (0.03162 µM) amounted to 1.04; in the assay with Adavosertib (0.1 µM), 1.04; with Adavosertib (0.3162 µM), 1.05; with Nelarabine + Pemetrexed (first compound 0.01 µM), 0.9; in the assay with Nelarabine + Pemetrexed (first compound 0.03162 µM), 0.866; in the assay with Nelarabine + Pemetrexed (first compound 0.1 µM), 1.36. Further, the relative viability in the assay with Nelarabine + Pemetrexed (first compound 0.3162 µM) turned out to be 1.17; with Nelarabine + Pemetrexed (first compound 1 µM), 0.751; in the assay with Adavosertib + Alpelisib (first compound 0.01 µM), 0.99; with Adavosertib + Alpelisib (first compound 0.03162 µM), 1.03; with Adavosertib + Alpelisib (first compound 0.1 µM), 1.08; with Adavosertib + Alpelisib (first compound 0.3162 µM), 1.07.
Take PC-14: the relative viability with Nelarabine (0.01 µM) came to 1.19; with Nelarabine (0.03162 µM), 0.99; with Nelarabine (0.1 µM), 1.21; in the assay with Nelarabine (0.3162 µM), 1.07; in the assay with Nelarabine (1 µM), 1.03; with Adavosertib (0.01 µM), 1.01. Moreover, the relative viability turned out to be 1.01 with Adavosertib (0.03162 µM); 1.01 in the assay with Adavosertib (0.1 µM); 0.605 with Adavosertib (0.3162 µM); 0.136 with Nelarabine + Pemetrexed (first compound 0.01 µM); 0.138 with Nelarabine + Pemetrexed (first compound 0.03162 µM); 0.125 in the assay with Nelarabine + Pemetrexed (first compound 0.1 µM). Besides, the relative viability with Nelarabine + Pemetrexed (first compound 0.3162 µM) was 0.142; with Nelarabine + Pemetrexed (first compound 1 µM), 0.158; with Adavosertib + Alpelisib (first compound 0.01 µM) it was 0.944; with Adavosertib + Alpelisib (first compound 0.03162 µM), 0.883; with Adavosertib + Alpelisib (first compound 0.1 µM) it was 0.948; with Adavosertib + Alpelisib (first compound 0.3162 µM), 0.493.
Turning to RERF-LC-KJ, the relative viability with Nelarabine (0.01 µM) was found to be 1.18; with Nelarabine (0.03162 µM), 1.09; in the assay with Nelarabine (0.1 µM), 1.06; in the assay with Nelarabine (0.3162 µM), 1.07; with Nelarabine (1 µM), 1.02; with Adavosertib (0.01 µM), 1.01. In addition, the relative viability with Adavosertib (0.03162 µM) is 0.971; in the assay with Adavosertib (0.1 µM) it was 1.02; with Adavosertib (0.3162 µM), 0.994; with Nelarabine + Pemetrexed (first compound 0.01 µM) it was 0.477; with Nelarabine + Pemetrexed (first compound 0.03162 µM) it was 0.424; in the assay with Nelarabine + Pemetrexed (first compound 0.1 µM), 0.458. The relative viability is 0.489 with Nelarabine + Pemetrexed (first compound 0.3162 µM); 0.49 in the assay with Nelarabine + Pemetrexed (first compound 1 µM); 0.855 in the assay with Adavosertib + Alpelisib (first compound 0.01 µM); 0.784 with Adavosertib + Alpelisib (first compound 0.03162 µM); 0.764 with Adavosertib + Alpelisib (first compound 0.1 µM); 0.793 with Adavosertib + Alpelisib (first compound 0.3162 µM).
As for SK-LU-1, the relative viability with Nelarabine (0.01 µM) is 1.35; in the assay with Nelarabine (0.03162 µM), 0.885; with Nelarabine (0.1 µM), 1.1; in the assay with Nelarabine (0.3162 µM), 1.2; with Nelarabine (1 µM), 1.18; with Adavosertib (0.01 µM), 1.1. Moreover, the relative viability is 1.04 with Adavosertib (0.03162 µM); 0.886 with Adavosertib (0.1 µM); 0.488 with Adavosertib (0.3162 µM); 1.19 with Nelarabine + Pemetrexed (first compound 0.01 µM); 0.796 with Nelarabine + Pemetrexed (first compound 0.03162 µM); 1.06 with Nelarabine + Pemetrexed (first compound 0.1 µM). Further, the relative viability worked out at 0.995 with Nelarabine + Pemetrexed (first compound 0.3162 µM); 1.04 with Nelarabine + Pemetrexed (first compound 1 µM); 1.04 in the assay with Adavosertib + Alpelisib (first compound 0.01 µM); 1.01 in the assay with Adavosertib + Alpelisib (first compound 0.03162 µM); 0.656 in the assay with Adavosertib + Alpelisib (first compound 0.1 µM); 0.291 with Adavosertib + Alpelisib (first compound 0.3162 µM).
As to SK-MES-1, the relative viability in the assay with Nelarabine (0.01 µM) turned out to be 1.15; in the assay with Nelarabine (0.03162 µM), 1.09; with Nelarabine (0.1 µM), 1.01; with Nelarabine (0.3162 µM), 1.09; with Nelarabine (1 µM), 1.04; with Adavosertib (0.01 µM), 0.989. For the same cell line, the relative viability with Adavosertib (0.03162 µM) was found to be 1.01; with Adavosertib (0.1 µM), 0.931; with Adavosertib (0.3162 µM), 0.528; with Nelarabine + Pemetrexed (first compound 0.01 µM), 1.17; with Nelarabine + Pemetrexed (first compound 0.03162 µM), 0.951; in the assay with Nelarabine + Pemetrexed (first compound 0.1 µM), 0.957. The relative viability was determined as 1.03 with Nelarabine + Pemetrexed (first compound 0.3162 µM); 1.07 with Nelarabine + Pemetrexed (first compound 1 µM); 0.956 with Adavosertib + Alpelisib (first compound 0.01 µM); 0.844 with Adavosertib + Alpelisib (first compound 0.03162 µM); 0.924 with Adavosertib + Alpelisib (first compound 0.1 µM); 0.618 in the assay with Adavosertib + Alpelisib (first compound 0.3162 µM).
With SW 1573, the relative viability is 1.13 with Nelarabine (0.01 µM); 1.04 with Nelarabine (0.03162 µM); 0.995 with Nelarabine (0.1 µM); 1.05 with Nelarabine (0.3162 µM); 0.979 with Nelarabine (1 µM); 0.99 with Adavosertib (0.01 µM). In addition, the relative viability in the assay with Adavosertib (0.03162 µM) was 1.03; in the assay with Adavosertib (0.1 µM), 1.14; in the assay with Adavosertib (0.3162 µM), 0.965; in the assay with Nelarabine + Pemetrexed (first compound 0.01 µM), 0.957; in the assay with Nelarabine + Pemetrexed (first compound 0.03162 µM), 0.908; with Nelarabine + Pemetrexed (first compound 0.1 µM), 1.01. Further, the relative viability came out at 0.838 with Nelarabine + Pemetrexed (first compound 0.3162 µM); 0.877 with Nelarabine + Pemetrexed (first compound 1 µM); 0.724 in the assay with Adavosertib + Alpelisib (first compound 0.01 µM); 0.786 in the assay with Adavosertib + Alpelisib (first compound 0.03162 µM); 0.751 in the assay with Adavosertib + Alpelisib (first compound 0.1 µM); 0.761 in the assay with Adavosertib + Alpelisib (first compound 0.3162 µM).
Consider UMC-11, for which the relative viability with Nelarabine (0.01 µM) is 1.1; with Nelarabine (0.03162 µM) it was 0.821; in the assay with Nelarabine (0.1 µM), 0.987; with Nelarabine (0.3162 µM), 1.07; in the assay with Nelarabine (1 µM) it was 0.996; with Adavosertib (0.01 µM), 0.973. The relative viability in the assay with Adavosertib (0.03162 µM) came out at 0.943; in the assay with Adavosertib (0.1 µM) it was 1; with Adavosertib (0.3162 µM), 1.08; with Nelarabine + Pemetrexed (first compound 0.01 µM), 0.992; with Nelarabine + Pemetrexed (first compound 0.03162 µM), 0.696; with Nelarabine + Pemetrexed (first compound 0.1 µM), 0.94. Moreover, the relative viability in the assay with Nelarabine + Pemetrexed (first compound 0.3162 µM) was 0.816; in the assay with Nelarabine + Pemetrexed (first compound 1 µM) it was 0.884; in the assay with Adavosertib + Alpelisib (first compound 0.01 µM), 1.03; with Adavosertib + Alpelisib (first compound 0.03162 µM) it was 1.02; with Adavosertib + Alpelisib (first compound 0.1 µM), 1.18; in the assay with Adavosertib + Alpelisib (first compound 0.3162 µM), 1.04.
